Experiments:
[1] = RNA FP protection counter screen assay; conditions: counter screen for false positives, n=2
Protocol: (§1) In the FP assay, fluorophores were added to the 3′ and 5′ end of a short RNA construct and incubated with a boron compound under accelerated degradation conditions (e.g., base and temperature). For intact RNA, the 2 fluorophores come together to produce fluorescence. When the RNA is cleaved, there is no fluorescence. […] The counter screen assay run for each boron compound was used as control.

[2] = tested on: random 30nt RNA oligonucleotide with a 5′ Cy5 fluorophore and a 3′ Biotin (SEQ ID NO: 9); assay: RNA Fluorescence Polarization (FP) protection assay; type: biochemical; conditions: 62.5 mM NaOH, 18 hours, dose response 600 µM top dose, n=2
Protocol: as §1
The RNA FP protection assay used a random 30nt RNA oligonucleotide (oligo) with a 5′ Cy5 fluorophore and a 3′ Biotin of the following sequence: 5′-Cy5-
In the presence of excess streptavidin, the RNA oligo will bind to the streptavidin and rotational spin will decrease causing an increase in the mP value in a fluorescence polarization (FP) measurement. When the RNA backbone is hydrolyzed under base mediated hydrolysis with increasing pH the Cy5 fluorophore will be free to spin faster lowering the mP value in an FP measurement. Compounds that inhibit base mediated hydrolysis will prevent release of Cy5 and reduction in mP value. […]
With regard to the plots provided in FIGS. 2-7, the detection for this assay used the fluorescent polarization of the fluorescent dye used in the assay. When a fluorescent dye has a high mass the spin rate is low and when the fluorescence is measured using two polarizing filters one parallel and one perpendicular the amount of spin can be measured. The unit Polarization was measured as mili-Polarization (mP). A dye with high mass will have a high mP reading and low mass will have a low mP reading. Streptavidin was added to bind to the biotin-RNA-Cy5 oligo to achieve high mass and the high mP reading. […] When a boron compound dose provides 100% activity, the RNA is intact/protected and the mP value measured is high. […]
To all wells in a compound spotted assay ready plate (Coming #3820) were added 2.5 µL of a 2x Biotin-RNA-Cy5 (Genescript custom #SC1518) and Streptavidin (ThermoFisher#21135) made in nuclease free water, incubated for 20 minutes, 2.5 µL of 50 mM Tris pH 7.2 was added to the positive control wells, and 2.5 µL 125 mM NaOH was added to all other wells. […]

[3] = molecular target: RNA samples (Chi18 or HCV IRES); assay: Droplet Digital Polymerase Chain Reaction (ddPCR) assay of RNA protection; type: biochemical; conditions: 50 mM Tris buffer pH 11.4, 16 hrs at 30° C. for Chi18 or 42° C. for HCV; table does not say which RNA; 600 µM to 0.018 µM compound, 2% DMSO; read-out: EC50 Values Obtained from the ddPCR Assay
Protocol: The ddPCR assays measured RNA integrity by converting intact RNA to cDNA by reverse transcription, then performing digital PCR in thousands of nanoliter-sized droplets for each sample. PCR was performed within each droplet, which allowed for more sensitive detection of subtle changes in RNA concentration compared to traditional PCR or qPCR. Additionally, primers/probes specific to the 5′ end of the RNA/cDNA transcript(s) were used to assess fragment integrity, i.e. degraded RNA had fewer 5′ positive droplets. The BioRad QX200 Droplet Digital PCR System was used for the ddPCR workflow.
RNA samples (Chi18 or HCV IRES) were diluted to 100 fg/µL in 50 mM Tris buffer pH 11.4. Boron compounds were tested in a dose-response format to determine EC50. A compound dilution plate that contained a 30 mM top concentration of compound in DMSO was serially (half-log) diluted 10 times. A quantity of 0.12 µL of this compound dilution plate was spotted into a 96-well PCR plate (Thermo). Sample RNAs were added (6 µL) and incubated with test compounds as described below. Final compound concentrations ranged from 600 µM to 0.018 µM in 2% DMSO.
For the degradation reaction, treated RNAs were incubated for 16 hrs at 30° C. for Chi18 samples or 42° C. for HCV samples. Upon completion of the degradation reaction, cDNA was made and ddPCR run for each sample (96 well plates). Positive 5′ droplet values were divided by the total accepted droplet values for each sample and a ratio value generated for each sample.
Data was imported into a database where percent (%) protection and compound EC50 were calculated and curated. […] EC50 was determined by using a four parameter logistic equation: Y=A+((B-A)/(1+(C/X)D)); where Y is percent protection, X is compound concentration, A and B are minimum and maximum asymptotes, respectively, C is EC50, and D is Hill slope.

Q: Which “activity in the RNA FP protection counter screen” value [1] does the source give for `CC1(C)OB(O)c2cc(C(=O)O)ccc21` [PF-06966741, 1-hydroxy-3,3-dimethyl-1,3-dihydrobenzo[c][1,2]oxabor ole-6-carboxylic acid] here?
A: Its value is “lack of activity”.

Q: And the “ability of the boron compound to protect RNA from being cleaved/degraded (percent activity, FP)” value [2]?
A: Its value is “RNA protective effect”.

Q: Which “activity in the RNA FP protection counter screen” value [1] does the source give for `NCc1cc(C(F)(F)F)ccc1Oc1ccc2c(c1)COB2O` [PF-06967658, 5-(2-(aminomethyl)-4-(trifluoromethyl)phenoxy)be nzo[c][1,2]oxaborol-1 (3H)-ol] here?
A: The value was “lack of activity”.

Q: And the “ability of the boron compound to protect RNA from being cleaved/degraded (percent activity, FP)” value [2]?
A: Its value is “RNA protective effect”.

Q: Which results are given for `CC1(C)OB(C2(B3OC(C)(C)C(C)(C)O3)CCCCC2)OC1(C)C` [PF-07230998, 2,2′-(cyclohexane-1,1-diyl)bis(4,4,5,5-tetramethyl-1,3,2-dioxaborolane)]?
A: activity in the RNA FP protection counter screen [1]: lack of activity; ability of the boron compound to protect RNA from being cleaved/degraded (percent activity, FP) [2]: RNA protective effect

Q: Which EC50 [3] does the source give for `C[C@H]1c2ccc(NCCC(=O)Nc3ccc4c(c3)B(O)OCC4)c(O)c2C(=O)C2=C(O)[C@]3(O)C(=O)C(C(N)=O)=C(O)[C@@H](N(C)C)[C@@H]3[C@@H](O)[C@@H]21` [PF-06968237, (4S,4aR,5S,5aR,6R,12aS)-4-(dimethylamino)-3,5,10,12,12a-pentahydroxy-9-({3-[(1-hydroxy-3,4-dihydro-1H-2,1-benzoxaborinin-7-yl)amino]-3-oxopropyl}amino)-6-methyl-1,11-dioxo-1,4,4a,5,5a,6,11,12a-octahyd rotetracene-2-carboxamide] here?
A: The EC50 was 166 µM.

Q: For `C[C@H]1c2ccc(NCCC(=O)Nc3cc4c5c(c3)OCCOB5OC4)c(O)c2C(=O)C2=C(O)[C@]3(O)C(=O)C(C(N)=O)=C(O)[C@@H](N(C)C)[C@@H]3[C@@H](O)[C@@H]21` [PF-06968542, (4S,4aR,5S,5aR,6R,12aS)-9-({3-[(2,3-dihydro-7H-[1,2]oxaborolo[4,3,2-jk][2,5,1]benzodioxaborepin-9-yl)amino]-3-oxopropyl}amino)-4-(dimethylamino)-3,5,10,12,12a-pentahydroxy-6-methyl-1,11-dioxo-1,4,4a,5,5a,6,11,12a-octahydrotetracene-2-carboxamide], which EC50 [3] is on record?
A: Its EC50 is 126 µM.

Reference: patent publication US20230340530A1, “Methods of Protecting RNA” (Pfizer Inc., priority 2020, published 2023)
